Data on 4 compounds can be found in US20210122763A1, “OGA INHIBITOR COMPOUNDS” (Janssen Pharmaceutica NV, priority 2018, published 2021).

The target of data set [1] is T1, OGA (Mus musculus, UniProt Q9EQQ9).
T1 construct: Brains were immediately removed from the skull; from tissue; host or cells: mouse brain (forebrain area of sagittal sections)
T1 sequence (Q9EQQ9 1-916): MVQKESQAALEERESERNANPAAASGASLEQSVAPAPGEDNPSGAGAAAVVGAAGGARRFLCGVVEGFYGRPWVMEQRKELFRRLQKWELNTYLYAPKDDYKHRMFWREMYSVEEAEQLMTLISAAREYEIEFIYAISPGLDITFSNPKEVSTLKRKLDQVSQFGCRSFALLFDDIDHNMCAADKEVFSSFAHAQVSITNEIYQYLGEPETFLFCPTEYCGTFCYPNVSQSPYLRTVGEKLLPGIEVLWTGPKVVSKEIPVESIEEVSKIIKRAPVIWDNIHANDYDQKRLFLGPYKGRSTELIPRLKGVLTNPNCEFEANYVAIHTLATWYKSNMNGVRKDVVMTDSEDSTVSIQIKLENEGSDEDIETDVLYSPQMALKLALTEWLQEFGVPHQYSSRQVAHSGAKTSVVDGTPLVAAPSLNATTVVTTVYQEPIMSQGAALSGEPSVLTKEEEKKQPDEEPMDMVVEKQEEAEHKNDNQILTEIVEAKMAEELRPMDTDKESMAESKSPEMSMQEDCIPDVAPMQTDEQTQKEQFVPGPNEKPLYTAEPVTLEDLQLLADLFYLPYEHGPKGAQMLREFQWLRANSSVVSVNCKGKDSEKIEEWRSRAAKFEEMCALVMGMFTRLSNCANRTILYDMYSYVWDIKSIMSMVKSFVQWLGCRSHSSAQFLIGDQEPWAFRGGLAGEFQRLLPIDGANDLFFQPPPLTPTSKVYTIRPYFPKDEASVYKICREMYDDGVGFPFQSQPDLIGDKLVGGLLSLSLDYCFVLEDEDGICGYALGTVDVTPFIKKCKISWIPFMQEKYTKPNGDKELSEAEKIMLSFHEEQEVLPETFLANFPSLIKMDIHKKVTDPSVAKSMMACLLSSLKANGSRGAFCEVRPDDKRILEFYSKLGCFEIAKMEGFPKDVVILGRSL
In words: Ex vivo OGA occupancy assay using [3H]-ligand. Format: in vivo. To be noted: male NMRI or C57Bl6j mice, p.o., 24 h after administration, forebrain area of brain sections, 3 nM [3H]-ligand, normalised to vehicle; for receptor occupancy at 25 mg/kg: mouse, po, read-out: Occupancy (% +/− sd). The protocol: 3) Ex Vivo OGA Occupancy Assay Using [3H]-Ligand Drug Treatment and Tissue Preparation
Male NMRI or C57Bl6j mice were treated by oral (p.o.) administration of vehicle or compound. Animals were sacrificed 24 hours after administration. Brains were immediately removed from the skull, hemispheres were separated and the right hemisphere, for ex vivo OGA occupancy assay, was rapidly frozen in dry-ice cooled 2-methylbutane (−40° C.). […] sagittal sections were cut using a Leica CM 3050 cryostat-microtome (Leica, Belgium), thaw-mounted on microscope slides (SuperFrost Plus Slides, Thermo Fisher Scientific) and stored at −20° C. until use. After thawing, sections were dried under a cold stream of air. The sections were not washed prior to incubation. The 10 minutes incubation with 3 nM [^3H]-ligand was rigorously controlled. All brain sections (from compound-treated and vehicle-treated animals) were incubated in parallel. After incubation, the excess of [^3H]-ligand was washed off in ice-cold buffer (PBS 1× and 1% BSA) 2 times 10 minutes, followed by a quick dip in distilled water. The sections were then dried under a stream of cold air.
QUANTITATIVE AUTORADIOGRAPHY AND DATA ANALYSIS Radioactivity in the forebrain area of brain slices was measured using a P-imager with M3 vision analysis software (Biospace Lab, Paris). Specific binding was calculated as the difference between total binding and non-specific binding measured in Thiamet-G (10 μM) treated sections. Specific binding in sections from drug treated animals was normalised to binding in sections from vehicle treated mice to calculate percentage of OGA occupancy by the drug.

SMILES strings stand for the structures.

For orientation: melting point means the temperature of the solid-liquid transition. The compound `Cc1ncc(OC2CCN(C(C)c3nc4c(cc3F)CCO4)CC2)cn1` (stereo not drawn) [Compound 95] registered a melting point of 127.82 °C. In data set [1], the receptor occupancy at 25 mg/kg is 20%. In the case of `Cc1cc(OC2CCN([C@H](C)c3nc4c(cc3F)OCCO4)CC2)cc(C)n1` (single isomer, unassigned) [Compound 148], in data set [1] (25 mg/kg), the “Occupancy (% +/− sd)” value is listed as 77.67 +/− 10.5%. For the same compound, the receptor occupancy at 25 mg/kg in data set [1] is 84.3%. As for `Cc1cc(OC2CCN([C@@H](C)c3nc4nc(C)sc4cc3F)CC2)cc(C)n1` (single isomer, unassigned) [Compound 83], the receptor occupancy at 25 mg/kg in data set [1] came to 97%. Same read-out and setting: under `Cc1cc(OC2CCN([C@H](C)c3nc4c(cc3F)CCO4)CC2)cc(C)n1` (single isomer, unassigned) [Compound 144] stands 94.7%.
